Results taken from US6503909B1, “Pyrazine compounds” (SmithKline Beecham Corporation, priority 1998, dated 2003).

System: male Han Wistar rats
Assay: rat maximal electroshock test (MES)
Format: in vivo
Description: For example, male Han Wistar rats (150-200 grms) were dosed i.p. with a suspension of the test compound in 0.25% methylcellulose 2 hr prior to test. A visual observation was carried out just prior to testing for the presence of ataxia. Using auricular electrodes a current of 200 mA, duration 300 millisec, was applied and the presence or absence of hind limb extension noted.

**Q.** Nc1nnc(-c2cccc(Cl)c2Cl)c(N)n1 [lamotrigine] was tested. Which ED50 (Rattus norvegicus, ip, dosed i.p. as suspension in 0.25% methylcellulose 2 hr prior to test, 200 mA, 300 millisec, auricular electrodes, read-out: ED50 (MES, hind limb extension)) did it give?
**A.** 6.1 mg/kg

**Q.** What about the “therapeutic index (ratio of the ataxia ED50 and MES ED50)” value (i.p., 2 hr prior to test, ataxia by visual observation) of the same molecule?
**A.** 3.3
